In brackets after ≈: the same amount, converted by molar mass.
Assays:
[1] = Half life in Sprague-Dawley rat at 10 nmol/kg, sc measured up to 96 hrs by LC-MS analysis; type: ADME, organism-based; conditions: in vivo
[2] = Displacement of [125I]-calcitonin from rat calcitonin receptor expressed in tk-ts 13 cells measured after 120 mins by scintillation proximity assay; type: cell-based; conditions: tk-ts13
[3] = Agonist activity at rat calcitonin receptor expressed in BHK-13 cells assessed as increase in intracellular cAMP concentration incubated for 25 mins by CRE luciferase reporter gene assay; type: cell-based; conditions: BHK-13, 25 min
Rattus norvegicus [4] = test: Reduction in food intake in Sprague-Dawley rat at 30 nmol/kg, sc administered as single dose measured after 24 to 48 hrs relative to control; type: functional; set-up: scale not given: the % may be the effect or the level left; conditions: time 24-48 hrs
[5] = Dose normalized AUC in Sprague-Dawley rat at 10 nmol/kg, iv measured up to 96 hrs by LC-MS analysis; type: ADME, organism-based; conditions: in vivo
[6] = Apparent volume of distribution in Sprague-Dawley rat at 10 nmol/kg, iv measured up to 96 hrs by LC-MS analysis; type: ADME, organism-based; conditions: in vivo, read-out: Vz
[7] = Displacement of [125I]-amylin from human AMY3R (CTR+RAMP3) expressed in BHK-13 cells measured after 120 mins by scintillation proximity assay; type: cell-based
[8] = Displacement of [125I]-calcitonin from human calcitonin receptor expressed in tk-ts 13 cells measured after 120 mins by scintillation proximity assay; type: cell-based; conditions: tk-ts13
[9] = Agonist activity at rat AMY3R (CT+RAMP3) expressed in tk-ts13 cells assessed as increase in intracellular cAMP level incuabted for 25 mins by CRE luciferase reporter gene assay; type: cell-based; conditions: tk-ts13, 25 min
[10] = Clearance in Sprague-Dawley rat at 10 nmol/kg, iv measured up to 96 hrs by LC-MS analysis; type: ADME, organism-based; conditions: in vivo
[11] = Agonist activity at human AMY3R (CT+RAMP3) expressed in Hollex1 cells incubated for 3 hrs by luminescence assay; type: cell-based; conditions: Hollex1, 3 h
Homo sapiens [12] = species: Homo sapiens; test: Ratio of IC50 for displacement of [125I]-calcitonin from human calcitonin receptor expressed in tk-ts 13 cells to IC50 for displacement of [125I]-amylin from human AMY3R (CTR+RAMP3) expressed in BHK-13 cells; type: cell-based
[13] = Bioavailability in Sprague-Dawley rat at 10 nmol/kg, sc measured up to 96 hrs by LC-MS analysis; type: ADME, organism-based; conditions: in vivo
[14] = Solubility of the compound in bis-tris propane at pH 6.5 by UPLC analysis; type: physicochemical; conditions: bis-tris propane buffer
Insulin (Homo sapiens) [15] = target: Insulin (Homo sapiens) (UniProt P01308); test: Effect on insulin (unknown origin) amyloid fibril formation assessed as lag time in HEPES buffer at pH 7.5 measured after 45 hrs by thioflavin-T fluorescence assay
Chain of Insulin (Homo sapiens) (P01308 whole entry): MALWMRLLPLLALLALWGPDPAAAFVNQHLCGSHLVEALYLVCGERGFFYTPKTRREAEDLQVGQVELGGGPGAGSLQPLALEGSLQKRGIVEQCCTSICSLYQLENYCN

[16] = Solubility of the compound in lactate at pH 4 by UPLC analysis; type: physicochemical; conditions: lactate buffer
[17] = Half life in Sprague-Dawley rat at 10 nmol/kg, iv measured up to 96 hrs by LC-MS analysis; type: ADME, organism-based; conditions: in vivo
Insulin (Homo sapiens) [18] = target: Insulin (Homo sapiens) (UniProt P01308); test: Effect on insulin (unknown origin) amyloid fibril formation assessed as lag time in glycyl-glycine buffer at pH 4 measured after 45 hrs by thioflavin-T fluorescence assay
[19] = Agonist activity at human calcitonin receptor expressed in BHK570 cells assessed as increase in intracellular cAMP concentration incubated for 3 hrs in absence of albumin by CRE luciferase reporter gene assay; type: cell-based; conditions: BHK570, 3 h
[20] = Dose normalized AUC in Sprague-Dawley rat at 10 nmol/kg, sc measured up to 96 hrs by LC-MS analysis; type: ADME, organism-based; conditions: in vivo
[21] = Solubility of the compound in bis-tris propane at pH 7 by UPLC analysis; type: physicochemical; conditions: bis-tris propane buffer
[22] = Displacement of [125I]-amylin from rat AMY3R (CTR+RAMP3) expressed in BHK-13 cells measured after 120 mins by scintillation proximity assay; type: cell-based
Rattus norvegicus [23] = test: Reduction in food intake in Sprague-Dawley rat at 30 nmol/kg, sc administered as single dose measured upto 24 hrs relative to control; type: functional; set-up: scale not given: the % may be the effect or the level left; conditions: time hrs <=24
Insulin (Homo sapiens) [24] = target: Insulin (Homo sapiens) (UniProt P01308); test: Effect on insulin (unknown origin) amyloid fibril formation assessed as peptide recovery in HEPES buffer at pH 7.5 measured after 45 hrs by thioflavin-T fluorescence assay relative to control
[25] = Solubility of the compound in bis-tris propane at pH 8 by UPLC analysis; type: physicochemical; conditions: bis-tris propane buffer
[26] = Solubility of the compound in bis-tris propane at pH 6 by UPLC analysis; type: physicochemical; conditions: bis-tris propane buffer
[27] = Solubility of the compound in lactate at pH 5 by UPLC analysis; type: physicochemical; conditions: lactate buffer
Rattus norvegicus [28] = test: Reduction in food intake in Sprague-Dawley rat at 3 nmol/kg, sc administered as single dose measured upto 24 hrs relative to control; type: functional; set-up: scale not given: the % may be the effect or the level left; conditions: time hrs <=24
[29] = Solubility of the compound in lactate at pH 3 by UPLC analysis; type: physicochemical; conditions: lactate buffer
Rattus norvegicus [30] = test: Reduction in food intake in Sprague-Dawley rat at 3 nmol/kg, sc administered as single dose measured after 24 to 48 hrs relative to control; type: functional; set-up: scale not given: the % may be the effect or the level left; conditions: time 24-48 hrs
[31] = Solubility of the compound in bis-tris propane at pH 7.5 by UPLC analysis; type: physicochemical; conditions: bis-tris propane buffer
Insulin (Homo sapiens) [32] = target: Insulin (Homo sapiens) (UniProt P01308); test: Effect on insulin (unknown origin) amyloid fibril formation assessed as peptide recovery in glycyl-glycine buffer at pH 4 measured after 45 hrs by thioflavin-T fluorescence assay relative to control; set-up: concentration or dose not given beside the values
Rattus norvegicus [33] = species: Rattus norvegicus; test: Ratio of EC50 for rat calcitonin receptor expressed in BHK-13 cells to EC50 for rat AMY3R (CT+RAMP3) expressed in tk-ts13 cells; type: cell-based
Rattus norvegicus [34] = species: Rattus norvegicus; test: Ratio of IC50 for displacement of [125I]-calcitonin from rat calcitonin receptor expressed in tk-ts 13 cells to IC50 for displacement of [125I]-amylin from rat AMY3R (CTR+RAMP3) expressed in BHK-13 cells; type: cell-based
Homo sapiens [35] = species: Homo sapiens; test: Ratio of EC50 for human calcitonin receptor expressed in BHK570 cells to EC50 for human AMY3R (CT+RAMP3) expressed in Hollex1 cells; type: cell-based

half-life [1]: 27 h
IC50 [2]: 0.681 nM
EC50 [3]: 0.287 nM
AUC/dose [5]: 266 kg·h/L
Vd [6]: 0.109 L/kg
IC50 [7]: 0.17 nM
IC50 [8]: 0.223 nM
EC50 [9]: 0.348 nM
clearance [10]: 3.77 mL/h/kg
EC50 [11]: 0.049 nM
bioavailability [13]: 30%
solubility [14]: 200 µM (≈ 882 µg/mL)
TIME (Insulin (Homo sapiens) [15]): 41 h
solubility [16]: 200 µM (≈ 882 µg/mL)
half-life [17]: 20 h
TIME (Insulin (Homo sapiens) [18]): 45 h
EC50 [19]: 0.062 nM
AUC/dose [20]: 87 kg·h/L
solubility [21]: 200 µM (≈ 882 µg/mL)
IC50 [22]: 0.52 nM
Activity (Insulin (Homo sapiens) [24]): 76%
solubility [25]: 200 µM (≈ 882 µg/mL)
solubility [26]: 200 µM (≈ 882 µg/mL)
solubility [27]: 200 µM (≈ 882 µg/mL)
solubility [29]: 200 µM (≈ 882 µg/mL)
solubility [31]: 200 µM (≈ 882 µg/mL)
Activity (Insulin (Homo sapiens) [32]): 96%
SMILES: CC[C@H](C)[C@H](NC(=O)[C@@H]1CCCN1C(=O)CNC(=O)[C@H](Cc1ccccc1)NC(=O)[C@H](CC(N)=O)NC(=O)[C@H](CC(N)=O)NC(=O)[C@H](CO)NC(=O)[C@H](CO)NC(=O)[C@H](Cc1c[nH]cn1)NC(=O)[C@H](CCCNC(=N)N)NC(=O)[C@H](CC(C)C)NC(=O)[C@H](Cc1ccccc1)NC(=O)[C@H](CCC(=O)O)NC(=O)[C@H](C)NC(=O)[C@H](CC(C)C)NC(=O)[C@H](CCCNC(=N)N)NC(=O)[C@H](CCC(N)=O)NC(=O)[C@@H](NC(=O)[C@H](C)NC(=O)[C@@H]1CSSC[C@H](NC(=O)[C@H](CCCCN)NC(=O)CC[C@H](NC(=O)CCCCCCCCCCCCCCCCCCC(=O)O)C(=O)O)C(=O)N[C@@H](CC(N)=O)C(=O)N[C@@H]([C@@H](C)O)C(=O)N[C@@H](C)C(=O)N[C@@H]([C@@H](C)O)C(=O)N1)[C@@H](C)O)C(=O)N[C@@H](CC(C)C)C(=O)N1CCC[C@H]1C(=O)N1CCC[C@H]1C(=O)N[C@H](C(=O)N[C@@H](CC(N)=O)C(=O)N[C@H](C(=O)NCC(=O)N[C@@H](CO)C(=O)N[C@@H](CC(N)=O)C(=O)N[C@H](C(=O)N1CCC[C@H]1C(N)=O)[C@@H](C)O)C(C)C)[C@@H](C)O
Activity (Rattus norvegicus [4]): 84%
Ratio IC50 (Homo sapiens [12]): 1
Activity (Rattus norvegicus [23]): 85%
Activity (Rattus norvegicus [28]): 40%
Activity (Rattus norvegicus [30]): 29%
Ratio EC50 (Rattus norvegicus [33]): 1
Ratio IC50 (Rattus norvegicus [34]): 1
Ratio EC50 (Homo sapiens [35]): 1

From ChEMBL document CHEMBL4842340, “Development of Cagrilintide, a Long-Acting Amylin Analogue” (J Med Chem, 2021)
